Where two headings read alike, the source gives them in different places.
Legend:
HT-1080 cells = test: Protection against Erastin-induced ferroptosis in HT-1080 cells (CellTiter-Glo); type: cell-based; settings: for Erastin-induced ferroptosis in HT-1080 cells: % activity remaining at 1 μM / % Activity remaining (value at a concentration of 1 μM): compound 1 μM; for % Activity remaining (value at a concentration of 1 μM): relative to vehicle and Erastin samples
Description: Compounds 6c, 6e, 6f, and 6i, as described above, were tested at a concentration of 1 μM, yielding values of 6c (85%), 6e (80%), 6f (77%), 6g (16%), 6h (78%), 6i (57%), and 6j (83%). For comparison, JP4-039 yielded a value of 56%. […] Briefly, 200 μL of a 5,000 cell/mL solution of HT-1080 cells were incubated for 24 h at 37° C. at 5% CO2, 95% humidity. The compounds were dissolved in DMSO and diluted to desired testing concentration. Compounds (1 μL) were added to culture medium (1 mL) containing 10 μM Erastin and incubated at 37° C., 5% CO2, 95% humidity for 24 h. CellTiter-Glo® reagent was added and the plate was incubated for 20 min at rt, sealed, centrifuged (1 min) at 1,000 rpm, shaken (1 min), and read in Enspire. % Activity remaining was determined as a function of vehicle sample and Erastin sample.
B. Compounds 6a-6n were tested for their protection against Erastin-induced ferroptosis in HT-1080 cells. Briefly, 200 μL of a 5,000 cell/mL solution of HT-1080 cells were incubated for 24 h at 37° C. at 5% CO2, 95% humidity. The compounds were dissolved in DMSO and diluted to desired testing concentration. Compounds (1 μL) were added to culture medium (1 mL) containing 10 μM Erastin and incubated at 37° C., 5% CO2, 95% humidity for 24 h. CellTiter-Glo® reagent was added and the plate was incubated for 20 min at rt, sealed, centrifuged (1 min) at 1,000 rpm, shaken (1 min), and read in Enspire. % Activity remaining was determined as a function of vehicle sample and Erastin sample.

[1] = 10 μM Erastin, 24 h, HT-1080 cells
[2] = 10 μM Erastin, 24 h, HT-1080 cells, read-out: EC50

Row | Compound | logP (log P) | Erastin-induced ferroptosis in HT-1080 cells: % activity remaining at 1 μM (HT-1080 cells; [1]) | % Activity remaining (value at a concentration of 1 μM) (HT-1080 cells; [1]) | log P (log P) | further results
1 | CC(C)(C)OC(=O)N[C@@H](/C=C/CC(=O)NC1CC(C)(C)N([O])C(C)(C)C1)c1ccccc1 [6b, tert-Butyl (S,E)-(5-((1-oxy-2,2,6,6-tetramethylpiperidin-4-yl)amino)-5-oxo-1-phenylpent-2-en-1-yl)carbamate] | 2.92 |  |  |  | EC50 (HT-1080 cells; Homo sapiens, HT-1080, 24 h): 0.948 µM
2 | CC(C)C[C@@H](/C=C/CNC(=O)C1CC(C)(C)N([O])C(C)(C)C1)NC(=O)OC(C)(C)C [6i, tert-Butyl (S,E)-(1-(1-oxy-2,2,6,6-tetramethylpiperidine-4-carboxamido)-6-methylhept-2-en-4-yl)carbamate] | 3.15 | 57% | 57% |  | 
3 | CC(C)C[C@@H](/C=C/[C@H](Cc1ccccc1)C(=O)NC1CC(C)(C)N(O)C(C)(C)C1)NC(=O)OC(C)(C)C [6j, tert-Butyl ((4S,7S,E)-7-benzyl-8-((1-oxy-2,2,6,6-tetramethylpiperidin-4-yl)amino)-2-methyl-8-oxooct-5-en-4-yl)carbamate] | 4.93 | 83% | 83% |  | EC50 (HT-1080 cells; Homo sapiens, 10 μM Erastin, 24 h, HT-1080 cells, read-out: EC50): 0.207 µM; EC50 (HT-1080 cells; Homo sapiens, 10 μM Erastin, 24 h, HT-1080 cells, read-out: Erastin-induced ferroptosis in HT-1080 cells: EC50): 0.207 µM
4 | CC(C)C[C@@H](/C=C/[C@H](Cc1ccc(F)cc1)C(=O)NC1CC(C)(C)N(O)C(C)(C)C1)NC(=O)OC(C)(C)C [6k, tert-Butyl ((4S,7S,E)-7-(4-fluorobenzyl)-8-((1-oxy-2,2,6,6-tetramethylpiperidin-4-yl)amino)-2-methyl-8-oxooct-5-en-4-yl)carbamate] | 5.09 |  |  |  | 
5 | CC(C)CC(C=CCC(=O)NC1CC(C)(C)N([O])C(C)(C)C1)NC(=O)OC(C)(C)C [6l, tert-Butyl (S,Z)-(8-((1-oxy-2,2,6,6-tetramethylpiperidin-4-yl)amino)-2-methyl-8-oxooct-5-en-4-yl)carbamate] |  |  |  | 2.76 | 
6 | CC(C)C[C@@H](CCCC(=O)NC1CC(C)(C)N([O])C(C)(C)C1)NC(=O)OC(C)(C)C [6m, tert-Butyl (R)-(8-((1-oxy-2,2,6,6-tetramethylpiperidin-4-yl)amino)-2-methyl-8-oxooctan-4-yl)carbamate] | 2.94 |  |  |  | 
7 | CCCCCCCC(=O)NC1CC(C)(C)N([O])C(C)(C)C1 [6n, N-(1-Oxy-2,2,6,6-tetramethylpiperidin-4-yl)octanamide] | 2.83 |  |  |  | 
8 | tert-Butyl (S,E)-(1-(1-((1-oxy-2,2,6,6-tetramethylpiperidin-4-yl)carbamoyl)cyclopentyl)-5-methylhex-1-en-3-yl)carbamate [6f] |  | 77% | 77% | 4.37 | 
9 | tert-Butyl (S,E)-(1-(1-((1-oxy-2,2,6,6-tetramethylpiperidin-4-yl)carbamoyl)cyclopropyl)-5-methylhex-1-en-3-yl)carbamate [6e] |  | 80% | 80% | 3.53 | EC50 (HT-1080 cells; 10 μM Erastin, 24 h, HT-1080 cells, read-out: Erastin-induced ferroptosis in HT-1080 cells: EC50): 0.958 µM
10 | tert-Butyl (S,E)-(1-(4-((1-oxy-2,2,6,6-tetramethylpiperidin-4-yl)carbamoyl)tetrahydro-2H-pyran-4-yl)-5-methylhex-1-en-3-yl)carbamate [6g] |  | 16% | 16% | 3.10 | 
11 | tert-Butyl (S,E)-(5-((1-oxy-2,2,6,6-tetramethylpiperidin-4-yl)amino)-4,4-dimethyl-5-oxo-1-phenylpent-2-en-1-yl)carbamate [6a] |  |  |  | 4.19 | 
12 | tert-Butyl (S,E)-(7,7-dibenzyl-8-((1-oxy-2,2,6,6-tetramethylpiperidin-4-yl)amino)-2-methyl-8-oxooct-5-en-4-yl)carbamate [6d] |  | 78% |  | 7.24 | EC50 (HT-1080 cells; [2]): 0.173 µM
13 | tert-Butyl (S,E)-(7-(1-oxy-2,2,6,6-tetramethylpiperidine-4-carboxamido)-2,7-dimethyloct-5-en-4-yl)carbamate [6h] |  | 78% | 78% | 3.68 | EC50 (HT-1080 cells; [2]): 0.576 µM
14 | tert-Butyl (S,E)-(8-((1-oxy-2,2,6,6-tetramethylpiperidin-4-yl)amino)-2,7,7-trimethyl-8-oxooct-5-en-4-yl)carbamate [6c] |  | 85% | 85% | 4.03 | 

Reference: patent publication US12486231B2, “Targeted nitroxide compounds and their use in treating ferroptosis-related diseases” (University of Pittsburgh—Of the Commonwealth System of …, priority 2019, dated 2025)
